The test system of data set [1] is HL-60 cells (human myeloid leukemia cells). Put plainly: Cancer cell growth inhibitory action using HL-60 cells (Cell counting kit-8). In kind it is cell-based. The following applies: for IC50: HL-60 cells, 24 hours, read-out: Cell growth inhibition ability (IC50); for Effect of inhibiting the growth of the HL-60 cells compared with resveratrol and E-viniferin: relative to resveratrol and ε-viniferin. As to the method:
Next, in order to see the effect of each compound to cancer cells, the cancer cell growth inhibitory action using HL-60 cells (human myeloid leukemia cells) was tested.
As culturing of cells, one in which 4 mM glutamine (L-glutamine, Sigma-Aldrich, “G8540-100G”) and 10% FBS (fetal bovine serum, Biological Industries, “04-001-1A”) were added to a high nutrient medium […] (Sigma-Aldrich, “R0883”) was used as a culture solution, and then subculture was performed. For a test, a 96-well plate for cell culture (Corning, “3595”) was used. The number of cells was adjusted on the test day in such a manner that the number of the HL-60 cells was 5×10^5 cell/mL, and then seeded in the 96-well plate with 100 μL/well.
For the preparation of the samples, each compound was dissolved with DMSO (dimethylsulfoxide, Wako Pure Chemical Industries, “046-21981”), and then the final concentration in the culture solution of the HL-60 cells of the samples was adjusted to be 10 μM, 30 μM, 100 μM, and 300 μM, respectively, and then the test was started.
For the detection of the cell growth inhibitory effect, the detection was performed by a MTT method using “Cell counting kit-8” (Dojin Chemical Laboratory, “347-07621”). More specifically, 24 hours after starting the test, 10 μL of the detection liquid of the cell counting kit-8 was added to each well, and then sufficiently stirred. Thereafter, a shading reaction was performed, the absorbance at 450 nm was measured using a plate reader (Biorad Laboratories, “BIO-RAD Model 680”), and then the obtained data were treated. The cell viability is a value obtained by calculation under the conditions where the number of survival cells of the cells treated with the culture solution to which DMSO was added was 100% and the number of survival cells of the cells under the concentration of each compound was defined as a relative value. From the relationship between each sample concentration and the cell viability, the concentration IC50 (50% inhibitory concentration) which inhibits the cell growth by 50% was calculated.
Background: Tetrazolium assays rely on reduction of a dye to a coloured formazan, in cell work by metabolically active cells.

A short description of data set [2]: Physicochemical properties: solubility in solvents.
For data set [3], the target named is rat intestine derived lipase. Put plainly: Lipase inhibitory action test (Lipase kit S). In kind it is biochemical. The settings on record: 30° C., 10 minutes reaction. As to the method: As lipase, one obtained by suspending 100 mg of rat derived intestine acetone powder (manufactured by Sigma-Aldrich Japan) in 1 mL of 100 mM citric acid buffer (pH 6.0), stirring the same at 4° C. for 1 hour, centrifuging the same (at 15000 rpm for 45 minutes at 4° C.) to obtain a supernatant, and then diluting the supernatant by 1500 times was used as a lipase solution.
With respect to the sample preparation, those obtained by dissolving each compound with DMSO, and then preparing in such a manner as to be 0.1 mM, 0.5 mM, 1 mM, 2 mM, and 4 mM were used.
For measuring the activity, a “Lipase kit S” (Trade name, manufactured by Dainippon Pharmaceutical Co., Ltd.) was used. First, in accordance with a preparation method described in the catalog of the Lipase kit S, a color developing liquid was prepared. Reaction liquids in which 70 μL, of the color developing liquid, 2 μL of an esterase inhibitor, 10 μL of the lipase solution, and 10 μL of the samples (Final concentration: 10 μM, 50 μM, 100 μM, 200 μM, 400 μM, and 1000 μM) were mixed were prepared, preincubated at 30° C. for 5 minutes, and then 8 μl of a substrate solution described in the catalog was added. Then, a reaction was started. After reacting for 10 minutes, 150 μL of a reaction stop liquid prepared in accordance with the preparation method described in the catalog of the Lipase kit S was added to stop the reaction. […]

Data set [4] deals with Bacillus subtilis (NBRC 3134). Put plainly: Antibacterial paper disc method. The following applies: 24 hours, read-out: Diameter of inhibition zone; for zone of inhibition at 1000 µM: NBRC3134, added concentration 1 mM; for zone of inhibition at 5000 µM: NBRC3134, added concentration 5 mM; for zone of inhibition at 10000 µM: NBRC3134, added concentration 10 mM. In kind it is cell-based. As to the method: An assay was performed by a paper disc method for the purpose of confirming the antibacterial action of the UHA4002 and 4003. The paper disc method is a known technique capable of easily investigating the antibacterial activity of a test substance by creating each inhibition zone of the test substance. The assay was performed using, as a fungus body, Bacillus subtilis (NBRC 3134) purchased from National Institute of Technology and Evaluation Biological Resource Center NBRC. For the raise of a fungus body and a culture method thereof, No. 702 which is a culture solution specified by NBRC was adjusted and used. The culture was performed at 37° C. The experiment method of the paper disc method ((Agar) culture solution, Culture method, Test preparation, Test method) was performed in accordance with a BSAC standardization disc sensitivity test method (8th edition). […] As a positive control, chloramphenicol (Wako Pure Chemical Industries, “036-10571”) of an antibacterial component to be used as a pharmaceutical agent was dissolved in DMSO and adjusted and, as a negative control, DMSO was used. The samples thus adjusted were immersed in the paper disc, disposed on an agar medium in which bacillus subtilis was seeded, cultured, and then, after 24 hours later, the measurement of the inhibition zone was performed. The reliability of this example is confirmed from the size of the inhibition zone by chloramphenicol.

Data set [5] can be described thus: DPPH radical elimination method (antioxidation). The settings on record: for IC50: DPPH radical, 20 minutes, absorbance 520 nm, read-out: Radical capturing ability (IC50); for Antioxidation activity compared with resveratrol: DPPH, relative to resveratrol. On the procedure:
A test of the antioxidation effect of the UHA4002 and 4003 was performed. The test was performed by adopting a DPPH (1,1-diphenyl-2-picrylhydrazyl) radical elimination method. A technique thereof is mentioned below.
About the main experiment method of the DPPH radical elimination method, the test was advanced with reference to a technique described in “Methods for Functional Food Analysis” (Published by Korin Publishing Co., Ltd., edited by Kazuki SHINOHARA, Tateo SUZUKI, and Shuichi KAMINOGAWA, 2000). […] The DPPH reaction liquid was adjusted in such a manner as to be 400 μM DPPH (Sigma-Aldrich “D9132”), 50 mM MES (2-morpholinoethanesulphonic acid, Dojindo Laboratories, “345-01625”), and 75% ethanol. The reaction was performed in a 96-well plate (As One, “1-6776-03”), and 100 μL of the samples and 100 μL of the DPPH reaction liquid were placed, and then mixed. The mixture was allowed to stand still in a shading state for 20 minutes, and then each absorbance at 520 nm was measured with a plate reader.
The IC50 refers to a concentration of each sample which is considered to have an ability of eliminating 50% DPPH radical.
In general terms: Loss of DPPH colour is used to gauge radical scavenging.

For data set [6], the system named is SCC-4 cells (human oral cancer cells). Put plainly: Oral cancer cell growth inhibitory action using SCC-4 cells (Cell counting kit-8). It is filed as cell-based. The following applies: read-out: Cell growth inhibition ability (IC50). As to the method: For culturing of the SCC-4 cells, a DMEM/F-12 (1:1) culture medium (manufactured by GIBCO) containing 400 ng/mL hydrocortisone (manufactured by Sigma-Aldrich Japan), 1% antibiotic-antimycotic (manufactured by GIBCO), and 10% FBS (Fetal Bovine Serum, manufactured by ATCC) was used. For the test, a collagen I coat 96-well plate for cell culture (manufactured by Japan BD) was used, and SCC-4 cells whose number of cells was adjusted to be 5×10^5 cells/mL were seeded with 100 μL/well. The cells were cultured under the conditions of 37° C. and 5% CO2 for 24 hours, and were used for the test in a confluent state of 80% or higher.
With respect to the sample preparation, each compound was dissolved with DMSO, and then prepared in such a manner as to be 0.63 mM, 1.25 mM, 2.5 mM, 5 mM, and 10 mM. The samples were added in such a manner that the final concentration in the SCC-4 cell culture solution was 6.3 μM, 12.5 μM, 25 μM, 50 μM, and 100 μM, and then the test was started. The sample to which an equivalent amount of only DMSO as the solvent was added was used as a negative control.
The number of viable cells was quantified by an MTT method using a “Cell counting kit-8” in the same manner as in Example 3, and the concentration IC50 at which the cell growth is inhibited by 50% was calculated.

SMILES strings stand for the structures. Read-outs that look alike come from different tables or passages of the source.

For orientation: IC50 means the concentration that gives 50% inhibition. Usually zone of inhibition stands for the extent of the growth-free halo in a diffusion test. As to `Oc1ccc(/C=C/c2cc(O)cc3c2C(c2ccc(O)cc2)Cc2cc(O)cc(O)c2-3)cc1` (single isomer, unassigned) [UHA 4002], the IC50 was found to be 30 µM in data set [1] (Homo sapiens), 311 µM in data set [3], 50 µM in data set [5] and 52.1 µM in data set [6]. In addition, the “Effect of inhibiting the growth of the HL-60 cells compared with resveratrol and E-viniferin” value in data set [1] was “twice or higher”. The Solubility result in data set [2] (Chloroform) is on record as “Poorly soluble”; in data set [2] (DMSO), “Soluble”; in data set [2] (Ethanol), “Soluble”; in data set [2] (Ethyl acetate) it was “Poorly soluble”; in data set [2] (Methanol), “Soluble”; in data set [2] (Water), “Poorly soluble”. Further, the zone of inhibition at 1000 µM in data set [4] was found to be 8.5 mm. Moreover, in data set [4], the zone of inhibition at 5000 µM was determined as 11 mm. Also, the zone of inhibition at 10000 µM in data set [4] is 13.3 mm. For the same molecule, the “Antioxidation activity compared with resveratrol” value in data set [5] is given as “as high as twice”.
Consider `Oc1ccc(/C=C\c2cc(O)c3c(c2)-c2c(O)cc(O)cc2CC3c2ccc(O)cc2)cc1` (single isomer, unassigned) [UHA 4003], for which the IC50 in data set [1] (Homo sapiens) turned out to be 30 µM; in data set [5] it was 50 µM; in data set [6], 32.4 µM. In addition, the “Effect of inhibiting the growth of the HL-60 cells compared with resveratrol and E-viniferin” value in data set [1] is “twice or higher”. Further, the Solubility result in data set [2] (Chloroform) is listed as “Poorly soluble”; in data set [2] (DMSO) it was “Soluble”; in data set [2] (Ethanol), “Soluble”; in data set [2] (Ethyl acetate), “Poorly soluble”; in data set [2] (Methanol), “Soluble”; in data set [2] (Water) it was “Poorly soluble”. Besides, in data set [4], the zone of inhibition at 1000 µM came to 8.3 mm. For the same molecule, the zone of inhibition at 5000 µM in data set [4] was determined as 10.5 mm. Further, the zone of inhibition at 10000 µM in data set [4] turned out to be 11.8 mm. For the same molecule, the “Antioxidation activity compared with resveratrol” value in data set [5] was “as high as twice”.
Consider `Oc1ccc(/C=C/c2cc(O)cc(O)c2)cc1` [Resveratrol, trans-resveratrol, reference compound], for which the IC50 in data set [1] (Homo sapiens) stood at 80 µM. Also, in data set [3], the half-maximal inhibitory concentration (IC50) is more than 1000 µM. Also, in data set [4], the zone of inhibition at 1000 µM amounted to 0 mm, the zone of inhibition at 5000 µM was 0 mm and the zone of inhibition at 10000 µM was 0 mm. The zone of inhibition at 50000 µM in data set [4] (NBRC3134, added concentration 50 mM) came to 10 mm. Moreover, in data set [6], the IC50 was more than 100 µM.
With `Oc1ccc(/C=C/c2cc(O)cc3c2[C@@H](c2cc(O)cc(O)c2)[C@H](c2ccc(O)cc2)O3)cc1` [ε-viniferin, reference compound], the IC50 in data set [1] amounted to 60 µM.

The record behind these values is patent US9051245B2 (UHA MIKAKUTO CO., LTD., priority 2011, dated 2015).
